In patent US6914045B2, “Glycopeptide antibiotics” (Wyeth Holdings Corporation, priority 2001, dated 2005):
Values after ≈ are worked out from the molar mass of the structure shown.

What was measured:
Assay in all cases: in vitro antibacterial evaluation, MIC by broth dilution
Assay type in all cases: cell-based
[1] = tested on: Enterococcus sp.; conditions: broth dilution, 18 hours at 35° C.
Outline: (§1)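 Step 1: dilute antibiotic across 64-0.06 μg/mL in Muller-Hinton II […]. Step 2: inoculate at 5×10^5 CFU/mL.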

[2] = tested on: Escherichia coli; conditions: 18 hours at 35° C., strain ATCC 25922
Outline: as §1

[3] = tested on: Staphylococcus sp.; conditions: broth dilution, 18 hours at 35° C.
Outline: as §1

[4] = tested on: Streptococcus sp.; conditions: broth dilution, 18 hours at 35° C.
Outline: as §1

MIC Enterococcus avium (GC 4558) ([1]; Enterococcus avium (GC 4558)): 8 µg/mL (≈ 5.87 µM) | MIC Enterococcus faecalis (ATCC 29212) ([1]; Enterococcus faecalis (ATCC 29212)): 4 µg/mL (≈ 2.93 µM) | MIC Enterococcus faecalis (GC 2242) ([1]; Enterococcus faecalis (GC 2242)): 4 µg/mL (≈ 2.93 µM) | MIC Enterococcus faecalis (GC 4552) ([1]; Enterococcus faecalis (GC 4552)): 4 µg/mL (≈ 2.93 µM) | MIC Enterococcus faecalis (GC 4553) ([1]; Enterococcus faecalis (GC 4553)): 8 µg/mL (≈ 5.87 µM) | MIC Enterococcus faecalis (GC 4554) ([1]; Enterococcus faecalis (GC 4554)): 4 µg/mL (≈ 2.93 µM) | MIC Enterococcus faecium (GC 2243) ([1]; Enterococcus faecium (GC 2243)): 8 µg/mL (≈ 5.87 µM) | MIC Enterococcus faecium (GC 4556) ([1]; Enterococcus faecium (GC 4556)): 4 µg/mL (≈ 2.93 µM) | MIC Enterococcus faecium (GC 4557) ([1]; Enterococcus faecium (GC 4557)): 2 µg/mL (≈ 1.47 µM) | MIC Enterococcus faecalis (ATCC 29212) ([1]; strain ATCC 29212): 4 µg/mL (≈ 2.93 µM) | MIC Enterococcus faecalis (GC 2242) ([1]; strain GC 2242): 4 µg/mL (≈ 2.93 µM) | MIC Enterococcus faecium (GC 2243) ([1]; strain GC 2243): 8 µg/mL (≈ 5.87 µM) | MIC Enterococcus faecalis (GC 4552) ([1]; strain GC 4552): 4 µg/mL (≈ 2.93 µM) | MIC Enterococcus faecalis (GC 4553) ([1]; strain GC 4553): 8 µg/mL (≈ 5.87 µM) | MIC Enterococcus faecalis (GC 4554) ([1]; strain GC 4554): 4 µg/mL (≈ 2.93 µM) | MIC Enterococcus faecium (GC 4556) ([1]; strain GC 4556): 4 µg/mL (≈ 2.93 µM) | MIC Enterococcus faecium (GC 4557) ([1]; strain GC 4557): 2 µg/mL (≈ 1.47 µM) | MIC Enterococcus avium (GC 4558) ([1]; strain GC 4558): 8 µg/mL (≈ 5.87 µM) | MIC Escherichia coli (ATCC 25922) [2]: 64 µg/mL (≈ 46.9 µM) | MIC Coagulase Negative Staphylococcus (GC 4547) [3]: 1 µg/mL (≈ 0.733 µM) | MIC Coagulase Negative Staphylococcus (GC 4548) [3]: 1 µg/mL (≈ 0.733 µM) | MIC Coagulase Negative Staphylococcus (GC 4549) [3]: 1 µg/mL (≈ 0.733 µM) | MIC Coagulase Negative Staphylococcus (GC 4551) [3]: 1 µg/mL (≈ 0.733 µM) | MIC Coagulase Negative Staphylococcus (ID-3941) [3]: 1 µg/mL (≈ 0.733 µM) | MIC Staphylococcus aureus (ATCC 29213) [3]: 1 µg/mL (≈ 0.733 µM) | MIC Staphylococcus aureus (GC 1131) [3]: 2 µg/mL (≈ 1.47 µM) | MIC Staphylococcus aureus (GC 4541) [3]: 2 µg/mL (≈ 1.47 µM) | MIC Staphylococcus aureus (GC 4542) [3]: 1 µg/mL (≈ 0.733 µM) | MIC Staphylococcus aureus (GC 4544) [3]: 2 µg/mL (≈ 1.47 µM) | MIC Staphylococcus aureus (GC 4545) [3]: 1 µg/mL (≈ 0.733 µM) | MIC Staphylococcus aureus-SMITH (GC 4543) [3]: 1 µg/mL (≈ 0.733 µM) | MIC Staphylococcus aureus (GC 1131) ([3]; inoculum 5×10^5 CFU/mL, strain GC 1131): 2 µg/mL (≈ 1.47 µM) | MIC Staphylococcus aureus (ATCC 29213) ([3]; strain ATCC 29213): 1 µg/mL (≈ 0.733 µM) | MIC Staphylococcus aureus (GC 4541) ([3]; strain GC 4541): 2 µg/mL (≈ 1.47 µM) | MIC Staphylococcus aureus (GC 4542) ([3]; strain GC 4542): 1 µg/mL (≈ 0.733 µM) | MIC Staphylococcus aureus (GC 4544) ([3]; strain GC 4544): 2 µg/mL (≈ 1.47 µM) | MIC Staphylococcus aureus (GC 4545) ([3]; strain GC 4545): 1 µg/mL (≈ 0.733 µM) | MIC Coagulase Negative Staphylococcus (GC 4547) ([3]; strain GC 4547): 1 µg/mL (≈ 0.733 µM) | MIC Coagulase Negative Staphylococcus (GC 4548) ([3]; strain GC 4548): 1 µg/mL (≈ 0.733 µM) | MIC Coagulase Negative Staphylococcus (GC 4549) ([3]; strain GC 4549): 1 µg/mL (≈ 0.733 µM) | MIC Coagulase Negative Staphylococcus (GC 4551) ([3]; strain GC 4551): 1 µg/mL (≈ 0.733 µM) | MIC Coagulase Negative Staphylococcus (ID-3941) ([3]; strain ID-3941): 1 µg/mL (≈ 0.733 µM) | MIC Staphylococcus aureus-SMITH (GC 4543) ([3]; strain SMITH GC 4543): 1 µg/mL (≈ 0.733 µM) | MIC Streptococcus agalactiae (GC 4564) ([4]; Streptococcus agalactiae (GC 4564)): 0.25 µg/mL (≈ 0.183 µM) | MIC Streptococcus pneumoniae (GC 4565) ([4]; Streptococcus pneumoniae (GC 4565)): <0.12 µg/mL | MIC Streptococcus pyogenes (ID-3187) ([4]; Streptococcus pyogenes (ID-3187)): 0.25 µg/mL (≈ 0.183 µM) | MIC Streptococcus agalactiae (GC 4564) ([4]; strain GC 4564): 0.25 µg/mL (≈ 0.183 µM) | MIC Streptococcus pneumoniae (GC 4565) ([4]; strain GC 4565): <0.12 µg/mL | MIC Streptococcus pyogenes (ID-3187) ([4]; strain ID-3187): 0.25 µg/mL (≈ 0.183 µM)
SMILES: CC(C)CC1OCC2OC(OC3C(CO)OC(Oc4ccc(CC5NC(=O)C(C(C)c6ccccc6)NC(=O)CNC(=O)C(CO)NC(=O)C(C(O)C6CNC(=N)N6C6OC(CO)C(O)C(O)C6O)NC(=O)C(C(O)C6CNC(=N)N6)NC5=O)cc4)C(O)C3O)C(O)C(O)C2O1 (stereo not drawn) [Example 107, Cyclo[glycyl-β-methylphenylalanyl-O-[4-O-[4,6-O-(3-methylbutylidene)hexopyranosyl]-hexopyranosyl]tyrosyl-3-(2-iminoimidazolidin-4-yl)seryl-3-(3-hexopyranosyl-2-iminoimidazolidin-4-yl)serylseryl]]
MIC Staphylococcus haemolyticus (GC 4546) [3]: 1 µg/mL (≈ 0.733 µM) | MIC Staphylococcus haemolyticus (GC 4546) ([3]; strain GC 4546): 1 µg/mL (≈ 0.733 µM)
